Consider one compound from publication PMC3170879 (Chemmedchem, 2011).

This assay deals with T1, steroid sulfatase (STS) (Homo sapiens, UniProt P08842).
T1 sequence (P08842 22-583): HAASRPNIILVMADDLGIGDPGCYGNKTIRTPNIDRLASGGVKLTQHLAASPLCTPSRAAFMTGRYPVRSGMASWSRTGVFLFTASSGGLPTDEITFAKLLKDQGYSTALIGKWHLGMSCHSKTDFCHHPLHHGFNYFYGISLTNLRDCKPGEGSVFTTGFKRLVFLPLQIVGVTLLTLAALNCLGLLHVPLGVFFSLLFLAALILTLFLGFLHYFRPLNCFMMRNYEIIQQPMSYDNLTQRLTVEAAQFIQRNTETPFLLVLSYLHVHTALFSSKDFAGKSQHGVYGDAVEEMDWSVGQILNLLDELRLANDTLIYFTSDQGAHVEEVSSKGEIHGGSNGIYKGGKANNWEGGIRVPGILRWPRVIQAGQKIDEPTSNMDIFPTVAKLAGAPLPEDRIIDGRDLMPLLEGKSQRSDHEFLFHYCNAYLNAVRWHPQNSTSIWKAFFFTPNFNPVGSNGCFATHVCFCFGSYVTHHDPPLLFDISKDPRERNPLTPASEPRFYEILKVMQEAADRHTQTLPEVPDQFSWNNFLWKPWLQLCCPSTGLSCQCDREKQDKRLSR
The assay is described as follows: radiometric sulfatase assay, intact JEG-3 monolayer. Format: cell-based. Particulars: read-out: [drawing 5]; [6,7-3H]oestrone sulfate substrate, 1 h.

For the compound `CN(C)S(=O)(=O)Oc1ccc(C(c2ccc(C#N)cc2)n2cncn2)cc1Br` (racemic) [compound 42, 2-Bromo-4-((4-cyanophenyl)(1H-1,2,4-triazol-1-yl)methyl)phenyl dimethylsulfamate], the IC50 is more than 10 µM.
